This is an account of results in article PMC10137182, “Novel CDK12/13 Inhibitors AU-15506 and AU-16770 Are Potent Anti-Cancer Agents in EGFR Mutant Lung Adenocarcinoma with and without Osimertinib Resistance” (Cancers, 2023).

Read-outs that look alike come from different tables or passages of the source.

Test [1] deals with PC9-osiR-NCI1-derived tumors. As to the kind of experiment: Subcutaneous xenograft mouse model. The format is in vivo, athymic female nude mice. The protocol:
All mice xenograft studies were conducted on 5–6-week-old female athymic nude mice […] with approval from the NCI Animal Care and Use Committee (ACUC). Mice were obtained from NCI-Frederick and maintained in a pathogen-free facility at the NCI. H1975-osiR-NCI1 or PC9-osiR-NCI1 cells were cultured in RPMI (Millipore-Sigma) supplemented with 10% fetal bovine serum (Gemini) and 1% penicillin/streptomycin. All cell lines were then cultured in a humidified incubator with 5% CO2 at 37 °C. Cells were detached using 0.25% trypsin (ThermoFisher) and resuspended in PBS prior to implantation. Approximately 2 × 10^6 cells/0.1 mL/mouse were implanted subcutaneously. […] Tumor growth was monitored twice weekly by bilateral caliper measurement and tumor volume was calculated using the length × diameter^2 formula. Mice with tumor volume <200 mm^3 were randomized into vehicle or treatment groups to ensure equal distribution across groups. However, for tumor tissue collection and lysate preparation, mice with xenografts were maintained with osimertinib until tumor size reached approximately 900 mm^3 prior to drug treatment for 5 days. Vehicle (0.5% methyl cellulose), osimertinib (5 mg/kg/day), AU-15506 (5 mg/kg/day), or AU-16770 (5 mg/kg/day) were administered by oral gavage. AU-15506 or AU-16770 were prepared in a solution containing 10% PEG400, 10% D-ɑ-tocopheryl polyethylene glycol succinate (TPGS), and 0.4% Tween 80. Tumor size was measured twice weekly. Tumor volume for each mouse was converted to percent change based on a baseline volume of 100% on treatment day 0. Tumor growth inhibition was assessed by comparison of either the average tumor volume or mean changes in tumor volume for the control and treatment groups. Statistical significance was evaluated using a two-tailed Student’s t test.

For test [2], the system named is HCC827-osiR-NCI1 cells. As to the kind of experiment: Cell-growth-inhibition end-point assay (CellTiter-Glo, 72 h). The format is cell-based. The conditions noted are these: Homo sapiens. How it is done: (§1) After 3–4 days of growth, surviving cells were trypsinized and plated again at the same initial density and the next day, the medium was replaced with a fresh growth medium, supplemented with 2× (relative to the previous concentration) of osimertinib. This process continued until osimertinib concentration reached […]. The newly generated osimertinib-resistant cells (H1975-osiR-NCI1, PC9-osiR-NCI1, HCC827-osiR-NCI1, and HCC827-osiR-NCI2) were then maintained at […] osimertinib.
(§2) Approximately 1500 cells/[…] were plated in 96-well plates with 4 wells for each treatment condition. Plates were incubated at 37 °C. For the cell growth assay, one set of cells was treated each day for 5 days with cell titer glow reagent (Promega), and luciferase luminescence (indicator of cell viability) was measured according to the manufacturer’s protocol. For the growth inhibition end-point assay, cells in 96-well plates were treated with target drugs as follows.
A general note: ATP-based viability assays read luminescence as a measure of living cells.

Test [3] relates to PC9-osiR-NCI1 cells. Described as above. The format is cell-based. The conditions noted are these: Homo sapiens, read-out: IC50 (osimertinib), PC9-osiR-NCI1. The protocol: as §1, §2
In test [4] the test system is H1975-osiR-NCI1 cells. The test is described as above. It is filed as cell-based. The conditions noted are these: Homo sapiens. How it is done:
as §1, §2

The subject of test [5] is PC9-osiR-NCI1 cells. Briefly: Cell-cycle analysis by flow cytometry (propidium iodide). The format is cell-based, human. The conditions noted are these: 50 nM osimertinib or 100 nM AU-16770, 18 h. How it is done:
(§3) PC9 and PC9-osiR-NCI1 cells were initially grown in an RPMI-1640 medium supplemented with 10% FBS, 1% penicillin/streptomycin, and 2 […]. Following 3–4 days of growth, cells were trypsinized, replated in 10 cm Petri dishes and grown in drug-free RPMI-1640, 10% FBS, and 1% penicillin/streptomycin. Both groups of cells were treated with DMSO (vehicle), osimertinib (50 nM), or AU-16770 (100 nM) for 18 h. Cells were trypsinized, washed with PBS, fixed in 70% ethanol, washed twice in PBS, and approximately 5 × 10^5 cells/mL were incubated in […] propidium iodide/PBS and 100 units/mL RNase to label the DNA for 1 h before it was analyzed by FACS.
Background: Flow cytometry measures light scatter and fluorescence of single cells or particles in a stream.

For test [6], the system named is PC9 cells. The test is described as above. The conditions noted are these: 50 nM osimertinib or 100 nM AU-16770, 18 h. The format is cell-based, human. How it is done: as §3
Test [7] deals with HCC827 cells. Briefly: Cell-growth-inhibition end-point assay (CellTiter-Glo, 72 h). The format is cell-based. The conditions noted are these: Homo sapiens, HCC827, read-out: IC50 (osimertinib), HCC827. How it is done: as §2
In test [8] the test system is H1975 cells. Described as above. The conditions noted are these: Homo sapiens, NCI-H1975, osimertinib alone; Figure 1B. The format is cell-based. The protocol:
as §2

The test system of test [9] is PC9 cells. The description is as above. The format is cell-based. The conditions noted are these: Homo sapiens, PC-9, read-out: IC50 (osimertinib), PC9. How it is done:
as §2

Test [10] deals with H1975, PC9, and HCC827 parental and osimertinib-resistant cells. As to the kind of experiment: Cell-growth-inhibition assays, summary over the cell panel. The format is cell-based. The conditions noted are these: Homo sapiens. The protocol: as §2
Test [11] concerns the target FGFR1 (Homo sapiens, UniProt P11362). Set-up: method as in PMID 19282669. The conditions noted are these: at 1 μM; cited from earlier work.

Sequence of FGFR1 (P11362 22-822, species assumed): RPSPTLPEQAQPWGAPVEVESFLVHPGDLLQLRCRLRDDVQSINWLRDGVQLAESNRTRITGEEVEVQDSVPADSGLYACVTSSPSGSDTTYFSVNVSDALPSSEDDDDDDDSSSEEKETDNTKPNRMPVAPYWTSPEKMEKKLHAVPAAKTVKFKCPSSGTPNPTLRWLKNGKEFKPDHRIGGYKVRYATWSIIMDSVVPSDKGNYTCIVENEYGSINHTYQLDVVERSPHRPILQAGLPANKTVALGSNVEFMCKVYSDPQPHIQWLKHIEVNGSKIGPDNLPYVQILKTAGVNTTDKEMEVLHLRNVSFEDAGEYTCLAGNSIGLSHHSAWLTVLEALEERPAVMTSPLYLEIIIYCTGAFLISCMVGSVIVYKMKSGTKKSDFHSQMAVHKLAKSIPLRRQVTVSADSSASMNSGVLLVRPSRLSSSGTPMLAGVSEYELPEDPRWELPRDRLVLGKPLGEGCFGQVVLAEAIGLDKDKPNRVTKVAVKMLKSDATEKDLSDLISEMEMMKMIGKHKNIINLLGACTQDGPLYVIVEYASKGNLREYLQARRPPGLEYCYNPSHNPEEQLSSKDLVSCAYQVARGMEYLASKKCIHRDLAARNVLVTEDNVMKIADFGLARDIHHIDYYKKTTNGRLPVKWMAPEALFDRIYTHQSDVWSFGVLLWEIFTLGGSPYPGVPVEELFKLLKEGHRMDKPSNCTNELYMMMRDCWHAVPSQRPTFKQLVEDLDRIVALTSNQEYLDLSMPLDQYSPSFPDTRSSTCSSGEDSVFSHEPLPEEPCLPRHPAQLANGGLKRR

On to `C=CC(=O)Nc1cc(Nc2nccc(-c3cn(C)c4ccccc34)n2)c(OC)cc1N(C)CCN(C)C` [osimertinib], for which the “effect on xenograft tumor growth” value in [1] (5 mg/kg/day oral gavage, AU-15506 arms 14 days, AU-16770 arms 28 days) is on record as “induced some tumor regression”. Besides, the “median survival (Kaplan–Meier)” value in test [1] (5 mg/kg/day, combination = AU-16770-osimertinib (days 0–32), AU-15506-osimertinib (days 33–46)) was 40 days. For the same molecule, in [1] (Day 28, 5 mg/kg/day oral gavage), the “Tumor growth inhibition (TGI)” value was 50%. Further, the IC50 in test [2] (read-out: IC50 (osimertinib), HCC827-osiR-NCI1) stood at 5490 nM; in test [2] (read-out: IC50, HCC827-osiR cells), 5490 nM; in [3], 2210 nM; in test [4] (NCI-H1975/OSIR, osimertinib alone, read-out: IC50, H1975-osiR cells), 1860 nM; in [4] (read-out: IC50 (osimertinib), H1975-osiR-NCI1), 1860 nM; in test [7], 7.5 nM. Also, the IC50 in [8] is 46.8 nM; in [9] it was 37.5 nM; in [10] (read-out: IC50s, osimertinib-resistant cells (range over cell lines)), 1860 to 5490 nM; in test [10] (read-out: IC50s, osimertinib-sensitive cells (range over cell lines)) it was 7.57 to 46.8 nM. For the same molecule, the “Cell Cycle Phase % G1, PC9-osiR” value in [5] amounted to 54.10%. Besides, the “Cell Cycle Phase % G2, PC9-osiR” value in test [5] is given as 1.41%. Also, in test [5], the “Cell Cycle Phase % S, PC9-osiR” value is 38.40%. In [6], the “Cell Cycle Phase % G1, PC9” value is listed as 67.40%. Further, the “Cell Cycle Phase % G2, PC9” value in test [6] was found to be 24.8%. Besides, the “Cell Cycle Phase % S, PC9” value in test [6] is 13.10%.
Consider `CN(C)C/C=C/C(=O)Nc1ccc(C(=O)N2CCC[C@@H](Nc3ncc(Cl)c(-c4c[nH]c5ccccc45)n3)C2)cc1` [THZ531], for which the “inhibition of FGFR1” value in [11] is 82%.
